Converted amounts (≈) assume the structure as drawn.

Series [1] deals with Bacillus subtilis. Briefly: Growth inhibition in broth (MIC95). It counts as cell-based. As to the method:
FIG. 8A-B. D66 inhibits the growth of Gram-positive bacteria in broth. A) Dose response curves monitoring staphylococcal and B. subtills growth in the presence of D66 from an OD600 of 0.01, normalized to growth in 2% DMSO after 18 hours. Mean and SEM of at least three biological replicates performed with technical triplicates. B) Table of D66 concentrations that inhibit growth. For comparison, S. Typhimurium is included.
(§1) A) D66 quenches the fluorescent dye DiSC3 (5) in a dose-dependent manner. Data were normalized to DMSO at time 0. Relative fluorescent units (RFU). Mean and SEM of three biological replicates performed with technical triplicates. B, C) Mid-log phase S. aureus (FDA209) in LB were treated at time 0 with DMSO, gramicidin [2 μg/mL], or D66 (1x MIC95=130 μM). B) Fold change in RFU. Data are normalized to DMSO at time 0. C) Data normalized to account for the quenching effect of D66 on DiSC3 (5) observed in A. Mean and SEM of three biological replicates performed with technical triplicates. D) Bacillus subtilis expressing mNeonGreen-FtsZ at stationary phase in LB were placed on agar pads containing D66 at the indicated concentration (1x MIC95=89 μM). Confocal microscope images were taken after 15 minutes to ascertain whether D66 disrupted the septal localization of FtsZ.

Series [2] in a line: Solubility limit in assay medium. It counts as physicochemical. The conditions noted are these: bacterial growth broth (LB or MHB), 37 °C, plasma or biological fluid, kinetic from dmso stock, final DMSO at or below 2%.
Series [3] deals with S. aureus FDA209. Briefly: Growth inhibition in broth (MIC95). The format is cell-based. As to conditions: Staphylococcus aureus. The procedure: FIG. 8A-B. […] inhibits the growth of Gram-positive bacteria in broth. A) Dose response curves monitoring staphylococcal and B. subtills growth in the presence of […] from an OD600 of 0.01, normalized to growth in 2% DMSO after 18 hours. Mean and SEM of at least three biological replicates performed with technical triplicates. B) Table of […] concentrations that inhibit growth. For comparison, S. Typhimurium is included.

Series [4] relates to S. Typhimurium. Nature of the series: Propidium iodide membrane barrier assay. The format is cell-based. The procedure: FIG. 3A-F. D66 rapidly perturbs the bacterial cytoplasmic membrane with minor disruption of barrier function. Mid-log phase S. Typhimurium cells grown in LB with 0.5 μg/mL PMB were used for all experiments. A) Cell membrane potential was monitored with the fluorescent dye DiSC3 (5). Cells were treated at time 0 with DMSO, JD1 [70 μM], or D66. Data were normalized to DMSO at time 0 and corrected for the quenching effect of D66 (FIG. 6A, B) B) Cell membrane permeability was monitored by PI fluorescence. Cells were treated at time 0 with DMSO, SDS [0.005%] or D66. Samples were processed at the time points shown. A one-way ANOVA with a Dunnet's multiple comparison test, * P<0.005. C-F) Growth curves and kill-curves of cells treated at time 0 with either DMSO or D66. Culture aliquots were monitored for OD600 (C, E) or plated for enumeration of CFU (D, F). Data are presented as fold change. Mean and SEM of three biological replicates with technical triplicates are shown in all panels.
Propidium iodide membrane barrier assays: Compound, DMSO, or SDS was added to mid-log phase cells to the desired concentration, and cultures were sampled at 0, 10, 15, 20, 30 and 45 minutes. Five minutes before harvesting, PI [10 μg/mL] (Life Technologies) was added. Cells were pelleted, washed twice, resuspended in PBS, and monitored (ex535/em617 nm) using a BioTek Synergy H1 plate reader.

Series [5] has as its system S. aureus FDA209. Briefly: Growth curves and kill curves of mid-log phase S. aureus. It counts as cell-based. As to the method: FIG. 9A-B. D66 is bactericidal to mid-log phase S. aureus. A) Growth curves and B) kill-curves. Mid-log phase cultures of S. aureus FDA209 were treated at time 0 with either DMSO or the indicated concentration of D66 (1x MIC95=130 μM). Cultures were monitored for OD600 and plated for enumeration of colony forming units (CFU). Data are presented as fold change. Mean and SEM of three biological replicates performed with technical triplicates.

The test system of series [6] is staphylococcal persister cells. Nature of the series: Staphylococcal persister cell viability in broth. It counts as cell-based. As to conditions: overnight cultures in broth, D66 at MIC95. As to the method:
A-D) Overnight cultures of the indicated strains were treated at time 0 with DMSO, ciprofloxacin [4 μg/mL], vancomycin [10 μg/mL], or the corresponding MIC95 concentration of D66 (1x MIC95=130 μM, 49 μg/mL). Cultures were plated for enumeration of CFU at time points indicated. Mean and SEM of three biological replicates. E) RAW 264.7 macrophage-like cells and HeLa cells were infected with S. aureus USA300, at MOIs of 0.5 and 2.5, respectively. Cells were treated two hours after infection with DMSO (gray circle on Y axis), or dilutions of D66 from 40 μM. After 8 hours of infection, cells were lysed and plated for enumeration of CFU. Mean and SEM of biological duplicates performed with technical triplicates each with six dilutions of D66. The IC50 value that was calculatable is indicated.

A short description of series [7]: Murine pharmacokinetic analysis. The conditions noted are these: mice, 50 mg/kg IP. It counts as in vivo, C57BL/6 mice. As to the method: FIG. 7A-B. D66 pharmacokinetic parameters. Values were calculated by compartmental modeling using Phoenix WinNonlin. Data fit a two-compartment model (r=0.9976) with bolus dosing. A) Decay curve. B) Parameter values.
Murine pharmacokinetic analyses and infections: Three female C57BL/6 mice were injected intraperitoneally (IP) with 50 mg/kg of D66 formulated in DMSO (50 μL). […] Three mice were initially dosed and observed for 24 hours to determine tolerability. […] Plasma D66 levels were measured using a liquid chromatography coupled to tandem mass spectrometry (LC/MS/MS) assay by the University of Colorado Cancer Center Drug Discovery and Development Shared Resource. The assay used monitored the transition of D66 (376 m/z->176 m/z) and was linear from 1-1000 ng/ml with an accuracy and precision of 90.3%+10.4% (% CV) based on quality control (QC) samples included with analyzed unknown samples.

Series [8] concerns RAW 264.7 cells. Briefly: Mitochondrial membrane potential with TMRM. As to conditions: uninfected RAW 264.7 cells; D66 first two hours; CCCP 7 μM.
For series [9], the system named is S. aureus (FDA209). Nature of the series: Membrane voltage with DiSC3(5) in Gram-positive bacteria. As to conditions: mid-log S. aureus FDA209 in LB. The format is cell-based. As to the method:
as §1

Turning to `O=C(Nc1cc(Cl)cc(Cl)c1)N1CCCN(Cc2ccccc2)CC1` [D66], the MIC was 89 µM (≈ 33.7 µg/mL) in series [1] and 130 µM (≈ 49.2 µg/mL) in series [3]. Further, in series [2], the solubility was around 150 µM (≈ 56.7 µg/mL). Moreover, in series [4] (LB with PMB [0.5 μg/mL], D66 at 1x MIC95), the “time elapsed prior to an increase in PI fluorescence” value amounted to 45 min. Further, the “time of treatment after which PI signal increased” value in [4] (LB with PMB [0.5 μg/mL], D66 at 2x MIC95, SDS [0.005%] positive control) came to 10 min. In addition, the PI signal increase result in series [4] (at 1x MIC, within 30 minutes) is “two-fold”. Besides, the “killing of mid-log phase S. aureus” value in series [5] is on record as “bactericidal”. For the same compound, the “number of viable staphylococcal persister cells” value in [6] is recorded as “did not reduce the number of viable staphylococcal persister cells in broth”. Also, in [7] (female, C57BL/6, mouse, plasma, two-compartment model, read-out: elimination (terminal) half-life (converted)), the half-life is 3 h. This compound showed a peak serum concentration in [7] of 3.5 µM. The “steady state volume of distribution (Vss)” value in series [7] amounted to 43.3 L/kg. Besides, the “elimination (terminal) half-life” value in series [7] (two-compartment model, 50 mg/kg) amounted to 3.0 h. Besides, in [8], the “TMRM fluorescence (mitochondrial membrane potential)” value was “increased TMRM signal in a dose-dependent manner”. In [9], the “voltage across the bacterial cytoplasmic membrane” value is on record as “rapidly disrupts voltage across the bacterial cytoplasmic membrane”.

A word on the MIC: it is the smallest concentration in the dilution series that meets the test's criterion for growth inhibition. A lower MIC goes with greater potency. By solubility is commonly meant how much of the substance goes into solution per volume. A low value points to a poorly soluble substance. As usually defined, the half-life is the time in which the quantity being followed falls by half.

The record behind these values is patent US20250302846A1, “ANTIBIOTIC COMPOSITION AND METHODS OF USE THEREOF” (THE REGENTS OF THE UNIVERSITY OF COLORADO A BODY CORPORATE, priority 2022, published 2025).
